Measurements published in patent publication US11311609B2, “Regulating chimeric antigen receptors” (DANA-FARBER CANCER INSTITUTE, INC., priority 2017, dated 2022).

What was measured:
[1] = tested on: FKBP* fused to Nluc; assay: Nluc/Fluc luciferase signal ratio assay of FKBP* degradation in 293FT cells; assay type: cell-based; settings: wild type or CRBN-/- 293FT cells; indicated concentrations, 4 hours
Description: FIG. 7A and FIG. 7B are graphs measuring the activity of a panel of dFKBP heterobifunctional compounds in cells expressing FKBP* fused to Nluc. Degradation of FKBP* is measured as a signal ratio (Nluc/Fluc) between NANOluc and firefly luciferase from the same multicistronic transcript in wild type (FIG. 7A) or CRBN −/− (FIG. 7B) 293FT cells treated with indicated concentrations of dFKBPs for 4 hours. A decrease in the signal ratio indicates FKBP* (Nluc) degradation. Additional experimental details are provided in Example 4.
In an effort to identify potent and selective dFKPB heterobifunctional compounds, high throughput measurements of targeted FKBP* degradation were measured by surrogate levels of luciferase. Here, FKBP* is exogenously expressed as a multicistronic transcript with two types of luciferase: nano luciferase (NLuc) and firefly luciferase (FLuc) that allow for cell normalized quantification of FKBP* protein levels. Degradation of FKBP* is measured as a signal ratio (Nluc/Fluc) in wild type (FIG. 7A) or CRBN −/− (FIG. 7B) 293FT cells treated with indicated concentrations of dFKBPs for 4 hours.

[2] = tested on: CD19 positive tumor cells (Daudi, Raji); assay: Co-culture depletion of CD19 positive tumor cells by SMART-CAR expressing Jurkat T-cells, flow cytometry with CD19-FITC antibody; assay type: cell-based
Description: FIG. 28 is a schematic depicting the experimental setup used in FIG. 18 to evaluate the ability of SMART-CAR expressing Jurkat cells to deplete CD19-positive tumor cells. SMART-CAR expressing Jurkat cells are incubated with CD19-positive target tumor cells at the indicated ratio for a given amount of time (Example 25). CD19-positive target tumor cell depletion can be monitored by measuring levels of CD19.
FIG. 30 is a schematic depicting the experimental setup used in FIG. 21 and described in Example 26 to illustrate the chemical control of SMART-CAR expression and subsequent activity against CD19 positive tumor cells using dFKBP7. SMART-CAR expressing Jurkat cells were pretreated with dFKBP7 at 250 nM for 4 hours to allow for maximal degradation of SMART-CAR. The Jurkat cells were then harvested and washed three times to remove dFKBP7. Jurkat cells were split into two experimental arms. The first arm (top, blue) was treated with DMSO control and the second arm (bottom, green) was retreated with 250 nM dFKBP7. The two experimental arms were then mixed at a 1:1 ratio with CD19 positive tumor cells and CD19-positive tumor cells monitored by flow cytometry.
FIG. 33 is a line plot tracking CD19 positive tumor cells during alternating exposure and removal of 250 nM of dFKBP7 in a 30 hour time course. […]
FIG. 28 illustrates the experimental design to evaluate the functionality of SMART-CAR expressing Jurkat T-cells to deplete CD19 positive target tumor cells. […] Co-cultured cells were pelleted, stained with a CD19-FITC antibody, fixed, and CD19 levels measured via flow cytometry.
SMART-CAR expressing Jurkat cells were pretreated with dFKBP7 at 250 nM for 4 hours to allow for maximal degradation of SMART-CAR. […] The two experimental arms were then mixed at a 1:1 ratio with CD19 positive tumor cells and CD19-positive tumor cells monitored by flow cytometry. […]
FIG. 32 is a graph that exemplifies the linear relationship between number of SMART-CAR expressing T-cells and functional killing of CD19 positive target tumor cells. […] CD19 positive tumor cells were then quantified using flow cytometry with a directly conjugated CD19-FITC antibody. […]

For `CC[C@H](C(=O)N1CCCC[C@H]1C(=O)O[C@H](CCc1ccc(OC)c(OC)c1)c1cccc(OCC(=O)NCCCOCCOCCOCCCNC(=O)COc2cccc3c2C(=O)N(C2CCC(=O)NC2=O)C3=O)c1)c1cc(OC)c(OC)c(OC)c1` (some centres unmarked) [dFKBP7], the “FKBP* (Nluc) degradation, signal ratio Nluc/Fluc” value [1] was “effectively degrade FKBP* in a cereblon dependent manner”, the “CD19 positive target tumor cell depletion in the presence of dFKBP7” value ([2]; 1:3 ratio, 250 nM, 4 HR to 24 HR) was “halted” and the “CD19 positive target tumor cell depletion after removal of dFKBP7” value ([2]; 1:3 ratio, 24 HR-30 HR) was “rapid target tumor cell depletion”. For the same compound, the “Daudi cell depletion, dose response” value ([2]; CD19 positive Daudi cells, 1:3 ratio, 24 hours, indicated concentrations) was “Daudi cell depletion was rescued” and the “CD19 positive tumor cells” value ([2]; Daudi and Raji, 1:1 ratio, retreatment with 250 nM dFKBP7) was “not affected”.
